Reference: PMC8919384 (ACS Medicinal Chemistry Letters, 2022)
Converted amounts (≈) assume the structure as drawn. One block for each molecule: values may come before it.

Key:
lung metastasis model = settings: cited from earlier work
melanoma-bearing mice = settings: combined with anti-CTLA-4 mAb; cited from earlier work
[1] = system: adult rat model of focal cerebral ischemia; settings: cited from earlier work
A1 AR = biological target: T1, A1 AR (Homo sapiens, UniProt P30542); settings: binding Ki
T1 sequence (P30542 1-326): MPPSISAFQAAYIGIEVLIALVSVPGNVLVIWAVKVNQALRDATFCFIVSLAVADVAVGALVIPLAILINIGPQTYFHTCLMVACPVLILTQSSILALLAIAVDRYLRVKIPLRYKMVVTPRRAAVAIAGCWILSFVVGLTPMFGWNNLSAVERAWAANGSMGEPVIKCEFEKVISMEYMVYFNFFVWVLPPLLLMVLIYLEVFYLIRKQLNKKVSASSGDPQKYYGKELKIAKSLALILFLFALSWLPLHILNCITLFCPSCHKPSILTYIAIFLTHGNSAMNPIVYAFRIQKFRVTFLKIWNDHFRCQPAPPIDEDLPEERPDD

Solubility = assay type: physicochemical; settings: pH 1.2, simulated gastric fluid

SMILES: Nc1nc(NCCc2ccc(O)cc2)nc2nc(-c3ccco3)nn12 [ZM241385]
tumor growth in a lung metastasis model (lung metastasis model): significantly inhibited tumor growth | tumor growth in melanoma-bearing mice (melanoma-bearing mice): remarkable delay in tumor growth

SMILES: Nc1nc2c(cnn2CCc2ccccc2)c2nc(-c3ccco3)nn12 [SCH58261]
ischemic brain damage [1]: reduced ischemic brain damage

selectivity for A1 AR over the A2A AR (A1 AR): two-fold
SMILES: Cc1cnc(-c2nc3c(-c4ccc(=O)n(C)c4)cnc(N)n3n2)s1 [1d]

solubility (Solubility): 1990 µg/mL (≈ 6.45 mM)
SMILES: Cn1cc(-c2cnc(N)n3nc(-c4ccco4)nc23)ccc1=O [1a]
